{
  "source": "paper PMC6017193",
  "about": "“Structure-Based Discovery of a Series of 5H-Pyrrolo[2,3-b]pyrazine FGFR Kinase Inhibitors” (Molecules : A Journal of Synthetic Chemistry and Natural …, 2018)",
  "key": {"[1]": {"molecular_target": "T1, FGFR1 (Homo sapiens, UniProt P11362)", "T1 construct": "purchased Millipore", "T1 sequence (P11362 22-822)": "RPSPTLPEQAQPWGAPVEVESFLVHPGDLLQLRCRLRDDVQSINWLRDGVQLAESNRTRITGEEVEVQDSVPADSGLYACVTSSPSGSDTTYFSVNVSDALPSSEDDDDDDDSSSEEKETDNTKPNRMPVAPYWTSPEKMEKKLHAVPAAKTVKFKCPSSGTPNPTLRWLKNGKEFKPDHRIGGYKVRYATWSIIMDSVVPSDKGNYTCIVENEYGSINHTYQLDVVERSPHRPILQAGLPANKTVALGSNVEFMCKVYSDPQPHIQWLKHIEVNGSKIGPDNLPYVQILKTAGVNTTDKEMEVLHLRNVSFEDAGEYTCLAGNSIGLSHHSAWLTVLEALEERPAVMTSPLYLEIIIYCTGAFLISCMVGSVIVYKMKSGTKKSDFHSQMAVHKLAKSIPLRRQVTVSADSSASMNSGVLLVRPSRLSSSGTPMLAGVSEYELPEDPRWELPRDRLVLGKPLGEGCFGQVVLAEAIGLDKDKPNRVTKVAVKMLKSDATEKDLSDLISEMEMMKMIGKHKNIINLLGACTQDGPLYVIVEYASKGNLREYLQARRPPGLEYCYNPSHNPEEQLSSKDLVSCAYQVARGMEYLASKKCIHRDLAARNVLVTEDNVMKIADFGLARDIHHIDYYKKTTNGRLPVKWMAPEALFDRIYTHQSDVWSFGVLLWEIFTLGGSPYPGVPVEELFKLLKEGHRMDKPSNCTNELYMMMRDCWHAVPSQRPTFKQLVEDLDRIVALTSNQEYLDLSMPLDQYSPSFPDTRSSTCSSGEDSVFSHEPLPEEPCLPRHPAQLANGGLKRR", "assay": "ELISA kinase assay, FGFR1 enzymatic activity", "type": "biochemical", "experimental": "(§1) The effects of compounds on the activities of indicated (FGFR1 and c-Met) kinases were determined using enzyme-linked immunosorbent assays (ELISAs) with purified recombinant proteins. Briefly, 20 μg/mL poly (Glu, Tyr)4:1 (Sigma, St. Louis, MO, USA) was precoated in 96-well plates as a substrate. A 50-μL aliquot of 10 μmol/L ATP solution diluted in kinase reaction buffer (50 mmol/L HEPES (pH 7.4), 50 mmol/L MgCl2, 0.5 mmol/L MnCl2, 0.2 mmol/L Na3VO4, and 1 mmol/L DTT) was added to each well; 1 μL of various concentrations of compounds diluted in 1% DMSO (v/v) (Sigma) were then added to each reaction well. DMSO (1%, v/v) was used as the negative control. The kinase reaction was initiated by the addition of purified tyrosine kinase proteins FGFR1 (Millipore, Darmstadt, Germany) or c-Met (Millipore) diluted in 49 μL of kinase reaction buffer. After incubation for 60 min at 37 °C, the plate was washed three times with phosphate-buffered saline (PBS) containing 0.1% Tween 20 (T-PBS). Anti-phosphotyrosine (PY99) antibody (Sanra Cruz, Dallas, TX, USA) (100 μL; 1:500, diluted in 5 mg/mL bovine serum albumin (BSA) T-PBS) was then added. After a 30-min incubation at 37 °C, the plate was washed three times, and 100 μL of horseradish peroxidase-conjugated goat anti-mouse IgG (Calbiochem, Shanghai, China) (1:2000, diluted in 5 mg/mL BSA T-PBS) was added. The plate was then incubated at 37 °C for 30 min, and washed three times. A 100-μL aliquot of a solution containing 0.03% H2O2 and 2 mg/mL o-phenylenediamine in 0.1 mol/L citrate buffer (pH 5.5) was added. The reaction was terminated by the addition of 50 μL of 2 mol/L H2SO4 as the color changed, and the plate was analyzed using a multi-well spectrophotometer (SpectraMAX 190, Molecular Devices, Palo Alto, CA, USA) at 490 nm. The inhibition rate (%) was calculated using the following equation:IR = [1 − (A490/A490control)] × 100%.(1) where IR, A490, and A490control are the inhibition rate, the absorbance value of the tested compound at 490 nm, and the absorbance value of the negative control compound at 490 nm, respectively. The IC50 values were calculated from the inhibition curves in two separate experiments."}, "[2]": {"molecular_target": "T2, c-Met (Homo sapiens, UniProt P08581)", "T2 construct": "purchased Millipore", "T2 sequence (P08581 25-1390)": "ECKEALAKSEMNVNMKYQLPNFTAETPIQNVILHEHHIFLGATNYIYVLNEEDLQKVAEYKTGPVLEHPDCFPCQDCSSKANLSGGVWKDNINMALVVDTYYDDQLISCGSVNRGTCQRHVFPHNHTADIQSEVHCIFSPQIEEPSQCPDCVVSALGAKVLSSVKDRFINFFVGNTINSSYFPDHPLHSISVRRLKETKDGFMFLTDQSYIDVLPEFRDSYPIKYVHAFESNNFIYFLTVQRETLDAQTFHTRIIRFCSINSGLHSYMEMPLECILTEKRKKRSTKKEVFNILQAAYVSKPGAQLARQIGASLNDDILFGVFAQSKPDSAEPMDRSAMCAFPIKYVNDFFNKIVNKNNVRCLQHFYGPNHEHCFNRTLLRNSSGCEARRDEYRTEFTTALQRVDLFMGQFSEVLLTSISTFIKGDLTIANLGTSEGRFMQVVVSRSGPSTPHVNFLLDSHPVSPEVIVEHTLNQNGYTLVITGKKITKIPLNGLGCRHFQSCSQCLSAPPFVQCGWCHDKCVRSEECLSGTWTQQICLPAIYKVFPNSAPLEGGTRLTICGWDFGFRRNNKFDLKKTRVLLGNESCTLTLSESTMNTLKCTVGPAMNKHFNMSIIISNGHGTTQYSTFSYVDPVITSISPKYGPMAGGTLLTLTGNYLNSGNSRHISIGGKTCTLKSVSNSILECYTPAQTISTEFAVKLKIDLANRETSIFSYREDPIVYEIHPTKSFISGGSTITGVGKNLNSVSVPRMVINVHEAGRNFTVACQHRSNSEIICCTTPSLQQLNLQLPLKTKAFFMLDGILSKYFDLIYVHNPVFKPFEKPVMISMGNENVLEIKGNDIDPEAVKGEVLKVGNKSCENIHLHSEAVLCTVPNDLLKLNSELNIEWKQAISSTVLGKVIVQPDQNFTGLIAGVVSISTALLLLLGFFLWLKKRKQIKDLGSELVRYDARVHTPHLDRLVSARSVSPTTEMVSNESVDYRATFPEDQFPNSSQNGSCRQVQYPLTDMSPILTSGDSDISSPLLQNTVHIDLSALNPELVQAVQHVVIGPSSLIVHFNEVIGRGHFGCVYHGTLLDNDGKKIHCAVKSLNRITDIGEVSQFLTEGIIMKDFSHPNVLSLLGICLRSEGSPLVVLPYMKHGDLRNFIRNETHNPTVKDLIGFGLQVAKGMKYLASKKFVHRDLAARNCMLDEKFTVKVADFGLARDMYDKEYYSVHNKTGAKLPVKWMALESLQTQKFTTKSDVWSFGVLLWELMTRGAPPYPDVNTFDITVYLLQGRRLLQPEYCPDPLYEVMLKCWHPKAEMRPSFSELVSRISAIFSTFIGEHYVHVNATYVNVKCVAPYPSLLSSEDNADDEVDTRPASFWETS", "assay": "Kinase panel profiling (ELISA kinase assay)", "type": "biochemical", "experimental": "as §1"}, "[3]": {"molecular_target": "KDR (Homo sapiens, UniProt P35968)", "sequence (P35968 20-1356, species assumed)": "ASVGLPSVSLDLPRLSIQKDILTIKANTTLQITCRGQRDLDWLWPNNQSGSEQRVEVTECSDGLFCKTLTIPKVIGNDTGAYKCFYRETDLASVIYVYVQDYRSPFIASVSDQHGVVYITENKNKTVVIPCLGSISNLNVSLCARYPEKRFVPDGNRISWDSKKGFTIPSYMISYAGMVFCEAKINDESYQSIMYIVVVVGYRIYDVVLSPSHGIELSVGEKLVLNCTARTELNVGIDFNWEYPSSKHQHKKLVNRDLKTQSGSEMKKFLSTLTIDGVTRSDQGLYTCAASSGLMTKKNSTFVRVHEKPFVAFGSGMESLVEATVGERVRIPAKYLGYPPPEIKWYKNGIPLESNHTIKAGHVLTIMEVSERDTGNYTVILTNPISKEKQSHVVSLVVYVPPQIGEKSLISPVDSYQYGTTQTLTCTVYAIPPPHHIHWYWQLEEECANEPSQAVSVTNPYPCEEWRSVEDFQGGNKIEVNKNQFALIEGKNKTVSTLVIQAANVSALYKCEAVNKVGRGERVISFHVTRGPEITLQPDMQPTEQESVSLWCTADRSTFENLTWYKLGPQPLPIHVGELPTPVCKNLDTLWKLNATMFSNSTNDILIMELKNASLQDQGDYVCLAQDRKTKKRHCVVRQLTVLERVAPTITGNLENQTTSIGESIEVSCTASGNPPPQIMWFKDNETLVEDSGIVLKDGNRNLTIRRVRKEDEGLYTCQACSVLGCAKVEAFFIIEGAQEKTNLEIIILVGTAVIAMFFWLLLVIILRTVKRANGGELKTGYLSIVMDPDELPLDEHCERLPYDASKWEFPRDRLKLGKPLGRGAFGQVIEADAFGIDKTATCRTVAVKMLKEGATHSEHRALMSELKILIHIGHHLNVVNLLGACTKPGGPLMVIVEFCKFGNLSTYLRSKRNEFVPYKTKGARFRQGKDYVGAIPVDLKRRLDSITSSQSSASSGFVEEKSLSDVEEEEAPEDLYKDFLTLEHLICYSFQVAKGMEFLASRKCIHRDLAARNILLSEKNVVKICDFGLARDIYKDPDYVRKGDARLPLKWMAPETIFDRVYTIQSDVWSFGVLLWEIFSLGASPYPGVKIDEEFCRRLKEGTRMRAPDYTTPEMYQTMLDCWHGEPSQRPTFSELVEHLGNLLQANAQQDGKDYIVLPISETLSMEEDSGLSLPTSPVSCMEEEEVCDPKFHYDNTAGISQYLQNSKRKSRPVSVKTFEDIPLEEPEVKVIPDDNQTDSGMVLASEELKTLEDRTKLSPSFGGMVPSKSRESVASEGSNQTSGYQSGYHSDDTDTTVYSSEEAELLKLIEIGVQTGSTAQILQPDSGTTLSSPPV", "assay": "Kinase panel profiling", "type": "biochemical"}, "[4]": {"molecular_target": "PDGFR-β (Homo sapiens, UniProt P09619)", "sequence (P09619 33-1106, species assumed)": "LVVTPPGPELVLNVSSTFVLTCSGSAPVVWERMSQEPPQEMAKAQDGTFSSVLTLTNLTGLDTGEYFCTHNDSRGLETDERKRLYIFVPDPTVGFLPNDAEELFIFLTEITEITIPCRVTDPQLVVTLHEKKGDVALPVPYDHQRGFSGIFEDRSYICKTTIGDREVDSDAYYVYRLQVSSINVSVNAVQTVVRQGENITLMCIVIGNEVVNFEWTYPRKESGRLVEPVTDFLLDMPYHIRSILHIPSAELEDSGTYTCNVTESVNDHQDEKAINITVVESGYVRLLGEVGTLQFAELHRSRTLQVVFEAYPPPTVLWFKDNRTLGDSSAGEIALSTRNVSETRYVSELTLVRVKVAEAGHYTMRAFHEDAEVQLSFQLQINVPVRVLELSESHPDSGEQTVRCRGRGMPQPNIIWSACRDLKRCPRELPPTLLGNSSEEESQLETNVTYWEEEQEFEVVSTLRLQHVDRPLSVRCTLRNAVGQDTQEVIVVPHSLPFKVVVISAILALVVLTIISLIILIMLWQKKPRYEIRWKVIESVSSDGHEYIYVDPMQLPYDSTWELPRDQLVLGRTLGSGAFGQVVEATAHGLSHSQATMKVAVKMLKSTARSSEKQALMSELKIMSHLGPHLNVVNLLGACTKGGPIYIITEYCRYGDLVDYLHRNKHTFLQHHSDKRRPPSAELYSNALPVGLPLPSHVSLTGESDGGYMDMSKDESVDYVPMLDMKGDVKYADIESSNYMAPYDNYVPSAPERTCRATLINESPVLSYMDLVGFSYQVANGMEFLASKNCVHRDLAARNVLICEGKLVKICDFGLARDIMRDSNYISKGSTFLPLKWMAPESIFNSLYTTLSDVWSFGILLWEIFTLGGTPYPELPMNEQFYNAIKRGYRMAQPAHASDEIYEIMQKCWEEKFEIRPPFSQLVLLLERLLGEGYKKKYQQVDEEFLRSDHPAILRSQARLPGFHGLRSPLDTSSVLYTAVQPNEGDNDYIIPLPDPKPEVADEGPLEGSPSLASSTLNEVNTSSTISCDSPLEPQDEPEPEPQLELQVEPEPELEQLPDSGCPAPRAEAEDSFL", "assay": "Kinase panel profiling", "type": "biochemical"}, "[5]": {"molecular_target": "EGFR (Homo sapiens, UniProt P00533)", "assay": "Kinase panel profiling", "type": "biochemical"}, "[6]": {"molecular_target": "ErbB2 (Homo sapiens, UniProt P04626)", "assay": "Kinase panel profiling", "type": "biochemical"}, "[7]": {"molecular_target": "ErbB4 (Homo sapiens, UniProt Q15303)", "assay": "Kinase panel profiling", "type": "biochemical"}, "[8]": {"molecular_target": "Src (Homo sapiens, UniProt P12931)", "sequence (P12931 whole entry, species assumed)": "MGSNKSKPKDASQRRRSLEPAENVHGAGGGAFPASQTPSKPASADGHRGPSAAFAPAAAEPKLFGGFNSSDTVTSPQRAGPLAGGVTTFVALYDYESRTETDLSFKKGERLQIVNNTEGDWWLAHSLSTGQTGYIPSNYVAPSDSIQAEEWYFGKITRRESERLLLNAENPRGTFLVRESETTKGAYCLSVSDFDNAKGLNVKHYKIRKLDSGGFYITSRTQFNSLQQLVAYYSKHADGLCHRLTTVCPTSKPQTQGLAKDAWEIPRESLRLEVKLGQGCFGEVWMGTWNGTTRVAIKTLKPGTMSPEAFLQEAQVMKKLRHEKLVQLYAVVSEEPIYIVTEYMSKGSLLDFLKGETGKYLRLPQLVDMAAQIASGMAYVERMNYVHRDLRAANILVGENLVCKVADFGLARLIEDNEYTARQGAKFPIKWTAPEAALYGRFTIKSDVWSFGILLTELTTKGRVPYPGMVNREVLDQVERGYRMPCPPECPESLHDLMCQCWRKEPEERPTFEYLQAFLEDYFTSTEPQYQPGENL", "assay": "Kinase panel profiling", "type": "biochemical"}, "[9]": {"molecular_target": "IGF1R (Homo sapiens, UniProt P08069)", "assay": "Kinase panel profiling", "type": "biochemical"}, "[10]": {"assay": "Human liver microsome stability test", "type": "in vitro ADME", "conditions": "human liver microsomes, pH 7.4, 1 μM test compound, read-out: HLM (human liver microsome stability test, clearance)", "experimental": "Microsomes (Human microsome: Xenotech, Lot No.H0610; Rat microsome: Xenotech, Lot No. R1000) (0.5 mg/mL) were preincubated with 1 μM of test compound for 5 min at 37 °C in 0.1 M phosphate buffer (pH 7.4) with 1 mmol Ethylenediaminetetraacetic acid (EDTA), and 5 mmol MgCl2. The reactions were initiated by adding prewarmed cofactors (1 mmol NADPH). After 0-min, 5-min, 10-min, and 30-min incubations at 37 °C, the reactions were stopped by adding an equal volume of cold acetonitrile. The samples were vortexed for 10 min, and then centrifuged at 10,000× g for 10 min. Supernatants were analyzed by LC/MS/MS for the amount of the parent compound remaining, and the corresponding loss of the parent compound was also determined by LC/MS/MS."}},
  "data": [
    {"smiles": "O=S(=O)(c1cn(CCF)cn1)n1ccc2ncc(-c3cn[nH]c3)nc21", "note": "[Compound 13, 5-((1-(2-fluoroethyl)-1H-imidazol-4-yl)sulfonyl)-3-(1H-pyrazol-4-yl)-5H-pyrrolo[2,3-b]pyrazine]", "values": [
      {"measurement": "inhibition at 0.01 µM", "setting": "[1]; 0.01 μM (10 nM), mean of two separate experiments", "result": "> 90", "unit": "%"},
      {"measurement": "inhibition at 0.1 µM", "setting": "[1]; 0.1 μM, mean of two separate experiments", "result": 91.7, "unit": "%"},
      {"measurement": "inhibition at 1 µM", "setting": "[1]; 1 μM, mean of two separate experiments", "result": 100, "unit": "%"},
      {"measurement": "IC50", "setting": "[1]; mean ± SD from two separate experiments", "result": "0.6 ± 0.2", "unit": "nM"},
      {"measurement": "inhibition at 0.01 µM", "setting": "[2]; 10 nM", "result": 3.9, "unit": "%"},
      {"measurement": "inhibition at 0.1 µM", "setting": "[2]; 100 nM", "result": 3.9, "unit": "%"},
      {"measurement": "Kinase Inhibition (%) c-Met", "setting": "[2]; 1000 nM (1 μM)", "result": "nearly no inhibition"},
      {"measurement": "inhibition at 1 µM", "setting": "[2]; 1000 nM (1 μM)", "result": 4.6, "unit": "%"},
      {"measurement": "inhibition at 0.01 µM", "setting": "[3]; 10 nM", "result": 7.4, "unit": "%"},
      {"measurement": "inhibition at 0.1 µM", "setting": "[3]; 100 nM", "result": 17.1, "unit": "%"},
      {"measurement": "inhibition at 1 µM", "setting": "[3]; 1000 nM", "result": 46.3, "unit": "%"},
      {"measurement": "inhibition at 0.01 µM", "setting": "[4]; 10 nM", "result": 12.8, "unit": "%"},
      {"measurement": "inhibition at 0.1 µM", "setting": "[4]; 100 nM", "result": 30.1, "unit": "%"},
      {"measurement": "inhibition at 1 µM", "setting": "[4]; 1000 nM", "result": 58.6, "unit": "%"},
      {"measurement": "inhibition at 0.01 µM", "setting": "[5]; 10 nM", "result": 0, "unit": "%"},
      {"measurement": "inhibition at 0.1 µM", "setting": "[5]; 100 nM", "result": 0, "unit": "%"},
      {"measurement": "inhibition at 1 µM", "setting": "[5]; 1000 nM", "result": 0, "unit": "%"},
      {"measurement": "inhibition at 0.01 µM", "setting": "[6]; 10 nM", "result": 0, "unit": "%"},
      {"measurement": "inhibition at 0.1 µM", "setting": "[6]; 100 nM", "result": 0, "unit": "%"},
      {"measurement": "inhibition at 1 µM", "setting": "[6]; 1000 nM", "result": 0, "unit": "%"},
      {"measurement": "inhibition at 0.01 µM", "setting": "[7]; 10 nM", "result": 0, "unit": "%"},
      {"measurement": "inhibition at 0.1 µM", "setting": "[7]; 100 nM", "result": 0, "unit": "%"},
      {"measurement": "inhibition at 1 µM", "setting": "[7]; 1000 nM", "result": 3, "unit": "%"},
      {"measurement": "inhibition at 0.01 µM", "setting": "[8]; 10 nM", "result": 0, "unit": "%"},
      {"measurement": "inhibition at 0.1 µM", "setting": "[8]; 100 nM", "result": 0, "unit": "%"},
      {"measurement": "inhibition at 1 µM", "setting": "[8]; 1000 nM", "result": 0, "unit": "%"},
      {"measurement": "inhibition at 0.01 µM", "setting": "[9]; 10 nM", "result": -3.8, "unit": "%"},
      {"measurement": "inhibition at 0.1 µM", "setting": "[9]; 100 nM", "result": 3, "unit": "%"},
      {"measurement": "inhibition at 1 µM", "setting": "[9]; 1000 nM", "result": 11.8, "unit": "%"},
      {"measurement": "microsomal CLint at 1 μM", "setting": "[10]", "result": 1, "unit": "µL/min/mg"}
    ]}
  ]
}
